Source: PubChem BioAssay AID248 (DTP/NCI, 2004)
“And” between values parts separate entries of the source, which are not always exact repeats. Equal entries are not always repeated. Toxic doses and inconclusive results are not listed. No stated cut-off is given here; in the data, active means T/C of 150% or more; inactive means T/C below 125%.

Tested on: L1210 leukemia ip in BDF1 mice, survival T/C
Assay: NCI In Vivo Anticancer Drug Screen. Data for tumor model L1210 Leukemia (intraperitoneal) in B6D2F1 (BDF1) mice
Conditions: higher = longer survival
Procedure, shortened: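 Transplantable tumor model; survival measured in treated vs vehicle control mice. Value = treated/control.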

Measured: T/C

Nc1nc2n[nH]nc2c(=O)[nH]1
active: endpoint: mean survival time, dose: 22.35 mg/kg/injection, schedule: Q01DX Z (ip), vehicle: carboxymethylcellulose (CMC) 152 % of control | endpoint: mean survival time, dose: 25.0 mg/kg/injection, schedule: Q01DX009 (ip), vehicle: saline 154 % of control and 160 % of control | endpoint: mean survival time, dose: 40.0 mg/kg/injection, schedule: Q01DX009 (ip), vehicle: other 159 % of control | endpoint: mean survival time, dose: 50.0 mg/kg/injection, schedule: Q01DX009 (ip), vehicle: carboxymethylcellulose (CMC) 159 % of control | endpoint: mean survival time, dose: 50.0 mg/kg/injection, schedule: Q01DX009 (ip), vehicle: other 155 % of control | endpoint: mean survival time, dose: 50.0 mg/kg/injection, schedule: Q01DX009 (ip), vehicle: saline 156 % of control and 158 % of control | endpoint: mean survival time, dose: 50.0 mg/kg/injection, schedule: Q01DX Z (im), vehicle: water 160 % of control | endpoint: mean survival time, dose: 50.0 mg/kg/injection, schedule: Q01DX Z (sc), vehicle: water 154 % of control | endpoint: mean survival time, dose: 60.0 mg/kg/injection, schedule: Q01DX009 (ip), vehicle: other 152 % of control | endpoint: mean survival time, dose: 61.0 mg/kg/injection, schedule: Q01DX015 (ip), vehicle: water 156 % of control | endpoint: mean survival time, dose: 64.0 mg/kg/injection, schedule: Q## X024 (ip), vehicle: other 150 % of control | endpoint: mean survival time, dose: 75.0 mg/kg/injection, schedule: Q01DX009 (ip), vehicle: other 156 % of control | endpoint: mean survival time, dose: 75.0 mg/kg/injection, schedule: Q02DX005 (ip), vehicle: carboxymethylcellulose (CMC) 159 % of control | endpoint: mean survival time, dose: 89.4 mg/kg/injection, schedule: Q01DX Z (ip), vehicle: carboxymethylcellulose (CMC) 154 % of control | endpoint: mean survival time, dose: 90.0 mg/kg/injection, schedule: Q01DX009 (ip), vehicle: other 150 % of control | endpoint: mean survival time, dose: 90.0 mg/kg/injection, schedule: Q01DX015 (ip), vehicle: carboxymethylcellulose (CMC) 155 % of control | endpoint: mean survival time, dose: 90.0 mg/kg/injection, schedule: Q## X015 (ip), vehicle: carboxymethylcellulose (CMC) 155 % of control | endpoint: mean survival time, dose: 100.0 mg/kg/injection, schedule: Q01DX009 (ip), vehicle: other 152 % of control | endpoint: mean survival time, dose: 100.0 mg/kg/injection, schedule: Q01DX009 (ip), vehicle: water 154 % of control | endpoint: mean survival time, dose: 100.0 mg/kg/injection, schedule: Q01DX Z (im), vehicle: water 160 % of control | endpoint: mean survival time, dose: 111.75 mg/kg/injection, schedule: Q01DX Z (ip), vehicle: carboxymethylcellulose (CMC) 160 % of control | endpoint: mean survival time, dose: 125.0 mg/kg/injection, schedule: Q## X003 (ip), vehicle: carboxymethylcellulose (CMC) 152 % of control and 155 % of control | endpoint: mean survival time, dose: 135.0 mg/kg/injection, schedule: Q01DX015 (ip), vehicle: carboxymethylcellulose (CMC) 152 % of control | endpoint: mean survival time, dose: 135.0 mg/kg/injection, schedule: Q## X015 (ip), vehicle: carboxymethylcellulose (CMC) 152 % of control | endpoint: mean survival time, dose: 150.0 mg/kg/injection, schedule: Q01DX009 (sc), vehicle: carboxymethylcellulose (CMC) 150 % of control | endpoint: mean survival time, dose: 150.0 mg/kg/injection, schedule: Q01DX Z (ip), vehicle: carboxymethylcellulose (CMC) 156 % of control | endpoint: mean survival time, dose: 200.0 mg/kg/injection, schedule: Q01DX009 (ip), vehicle: water 152 % of control and 160 % of control | endpoint: mean survival time, dose: 225.0 mg/kg/injection, schedule: Q01DX015 (ip), vehicle: clinical formulation 156 % of control | endpoint: mean survival time, dose: 250.0 mg/kg/injection, schedule: Q06DX003 (ip), vehicle: carboxymethylcellulose (CMC) 151 % of control | endpoint: mean survival time, dose: 250.0 mg/kg/injection, schedule: Q## X003 (ip), vehicle: carboxymethylcellulose (CMC) 155 % of control | endpoint: mean survival time, dose: 300.0 mg/kg/injection, schedule: Q01DX009 (sc), vehicle: carboxymethylcellulose (CMC) 151 % of control | endpoint: mean survival time, dose: 500.0 mg/kg/injection, schedule: Q01DX001 (ip), vehicle: carboxymethylcellulose (CMC) 150 % of control | endpoint: mean survival time, dose: 750.0 mg/kg/injection, schedule: Q10DX003 (ip), vehicle: carboxymethylcellulose (CMC) 157 % of control | endpoint: median survival time, dose: 200.0 mg/kg/injection, schedule: Q01DX009 (ip), vehicle: other 150 % of control
inactive: endpoint: mean survival time, dose: 1.25 mg/kg/injection, schedule: Q01DX015 (ip), vehicle: clinical formulation 109 % of control | endpoint: mean survival time, dose: 1.4 mg/kg/injection, schedule: Q01DX Z (ip), vehicle: carboxymethylcellulose (CMC) 109 % of control | endpoint: mean survival time, dose: 2.5 mg/kg/injection, schedule: Q01DX015 (ip), vehicle: clinical formulation 107 % of control | endpoint: mean survival time, dose: 2.8 mg/kg/injection, schedule: Q01DX Z (ip), vehicle: carboxymethylcellulose (CMC) 109 % of control | endpoint: mean survival time, dose: 3.13 mg/kg/injection, schedule: Q01DX010 (ip), vehicle: alkali diluted with saline 108 % of control and 110 % of control | endpoint: mean survival time, dose: 5.0 mg/kg/injection, schedule: Q01DX015 (ip), vehicle: clinical formulation 107 % of control | endpoint: mean survival time, dose: 5.0 mg/kg/injection, schedule: Q01DX Z (oral), vehicle: carboxymethylcellulose (CMC) 115 % of control | endpoint: mean survival time, dose: 5.59 mg/kg/injection, schedule: Q01DX Z (ip), vehicle: carboxymethylcellulose (CMC) 118 % of control | endpoint: mean survival time, dose: 6.25 mg/kg/injection, schedule: Q01DX010 (ip), vehicle: alkali diluted with saline 122 % of control and 123 % of control | endpoint: mean survival time, dose: 7.5 mg/kg/injection, schedule: Q01DX Z (sc), vehicle: carboxymethylcellulose (CMC) 112 % of control | endpoint: mean survival time, dose: 10.0 mg/kg/injection, schedule: Q01DX015 (ip), vehicle: clinical formulation 117 % of control | endpoint: mean survival time, dose: 10.0 mg/kg/injection, schedule: Q01DX Z (oral), vehicle: carboxymethylcellulose (CMC) 103 % of control | endpoint: mean survival time, dose: 12.5 mg/kg/injection, schedule: Q01DX006 (iv), vehicle: water 104 % of control | endpoint: mean survival time, dose: 12.5 mg/kg/injection, schedule: Q01DX Z (im), vehicle: water 121 % of control | endpoint: mean survival time, dose: 12.5 mg/kg/injection, schedule: Q01DX Z (ip), vehicle: other 97 % of control | endpoint: mean survival time, dose: 15.0 mg/kg/injection, schedule: Q01DX Z (sc), vehicle: carboxymethylcellulose (CMC) 106 % of control | endpoint: mean survival time, dose: 20.0 mg/kg/injection, schedule: Q01DX015 (ip), vehicle: water 101 % of control | endpoint: mean survival time, dose: 20.0 mg/kg/injection, schedule: Q01DX Z (oral), vehicle: carboxymethylcellulose (CMC) 95 % of control | endpoint: mean survival time, dose: 25.0 mg/kg/injection, schedule: Q01DX005 (ip), vehicle: other 111 % of control | endpoint: mean survival time, dose: 25.0 mg/kg/injection, schedule: Q01DX006 (iv), vehicle: water 113 % of control | endpoint: mean survival time, dose: 25.0 mg/kg/injection, schedule: Q01DX009 (sc), vehicle: carboxymethylcellulose (CMC) 104 % of control | endpoint: mean survival time, dose: 25.0 mg/kg/injection, schedule: Q01DX Z (ip), vehicle: other 106 % of control | endpoint: mean survival time, dose: 30.0 mg/kg/injection, schedule: Q01DX Z (ip), vehicle: other 121 % of control | endpoint: mean survival time, dose: 40.0 mg/kg/injection, schedule: Q01DX Z (oral), vehicle: carboxymethylcellulose (CMC) 109 % of control | endpoint: mean survival time, dose: 44.0 mg/kg/injection, schedule: Q01DX015 (ip), vehicle: water 98 % of control and 115 % of control | endpoint: mean survival time, dose: 50.0 mg/kg/injection, schedule: Q01DX001 (ip), vehicle: steriod suspending solution 117 % of control | endpoint: mean survival time, dose: 50.0 mg/kg/injection, schedule: Q01DX005 (ip), vehicle: other 122 % of control | endpoint: mean survival time, dose: 50.0 mg/kg/injection, schedule: Q01DX Z (oral), vehicle: other 93 % of control | endpoint: mean survival time, dose: 50.0 mg/kg/injection, schedule: Q01DX Z (oral), vehicle: water 98 % of control | endpoint: mean survival time, dose: 62.0 mg/kg/injection, schedule: Q01DX001 (ip), vehicle: carboxymethylcellulose (CMC) 121 % of control | endpoint: mean survival time, dose: 62.0 mg/kg/injection, schedule: Q01DX001 (sc), vehicle: carboxymethylcellulose (CMC) 106 % of control | endpoint: mean survival time, dose: 87.0 mg/kg/injection, schedule: Q01DX001 (ip), vehicle: water 115 % of control and 122 % of control | endpoint: mean survival time, dose: 87.0 mg/kg/injection, schedule: Q07DX Z (ip), vehicle: water 121 % of control | endpoint: mean survival time, dose: 100.0 mg/kg/injection, schedule: Q01DX001 (ip), vehicle: steriod suspending solution 118 % of control | endpoint: mean survival time, dose: 100.0 mg/kg/injection, schedule: Q#A X Z (ip), vehicle: carboxymethylcellulose (CMC) 115 % of control | endpoint: mean survival time, dose: 125.0 mg/kg/injection, schedule: Q01DX001 (sc), vehicle: carboxymethylcellulose (CMC) 109 % of control | endpoint: mean survival time, dose: 175.0 mg/kg/injection, schedule: Q01DX001 (ip), vehicle: water 119 % of control and 121 % of control | endpoint: mean survival time, dose: 175.0 mg/kg/injection, schedule: Q07DX Z (ip), vehicle: water 116 % of control | endpoint: mean survival time, dose: 200.0 mg/kg/injection, schedule: Q01DX001 (ip), vehicle: steriod suspending solution 120 % of control | endpoint: mean survival time, dose: 200.0 mg/kg/injection, schedule: Q01DX009 (ip), vehicle: saline 102 % of control | endpoint: mean survival time, dose: 200.0 mg/kg/injection, schedule: Q01DX Z (im), vehicle: carboxymethylcellulose (CMC) 103 % of control | endpoint: mean survival time, dose: 200.0 mg/kg/injection, schedule: Q01DX Z (sc), vehicle: carboxymethylcellulose (CMC) 124 % of control | endpoint: mean survival time, dose: 202.0 mg/kg/injection, schedule: Q01DX009 (ip), vehicle: other 98 % of control | endpoint: mean survival time, dose: 202.5 mg/kg/injection, schedule: Q01DX015 (ip), vehicle: carboxymethylcellulose (CMC) 97 % of control | endpoint: mean survival time, dose: 202.5 mg/kg/injection, schedule: Q## X015 (ip), vehicle: carboxymethylcellulose (CMC) 97 % of control | endpoint: mean survival time, dose: 223.5 mg/kg/injection, schedule: Q01DX Z (ip), vehicle: carboxymethylcellulose (CMC) 107 % of control | endpoint: mean survival time, dose: 250.0 mg/kg/injection, schedule: Q01DX001 (sc), vehicle: carboxymethylcellulose (CMC) 113 % of control | endpoint: mean survival time, dose: 300.0 mg/kg/injection, schedule: Q01DX009 (ip), vehicle: other 119 % of control | endpoint: mean survival time, dose: 300.0 mg/kg/injection, schedule: Q03DX Z (ip), vehicle: water 121 % of control | endpoint: mean survival time, dose: 350.0 mg/kg/injection, schedule: Q01DX001 (ip), vehicle: water 116 % of control and 121 % of control | endpoint: mean survival time, dose: 350.0 mg/kg/injection, schedule: Q07DX Z (ip), vehicle: water 109 % of control | endpoint: mean survival time, dose: 400.0 mg/kg/injection, schedule: Q01DX Z (sc), vehicle: carboxymethylcellulose (CMC) 100 % of control | endpoint: mean survival time, dose: 500.0 mg/kg/injection, schedule: Q## X003 (ip), vehicle: carboxymethylcellulose (CMC) 95 % of control | endpoint: mean survival time, dose: 700.0 mg/kg/injection, schedule: Q01DX001 (ip), vehicle: water 97 % of control | endpoint: median survival time, dose: 12.5 mg/kg/injection, schedule: Q01DX009 (ip), vehicle: other 122 % of control | endpoint: median survival time, dose: 25.0 mg/kg/injection, schedule: Q01DX009 (ip), vehicle: other 122 % of control
